Columns and labels:
[1] = Metabolic Stability in mouse liver microsome assessed as microsomal intrinsic clearance at […] measured upto 60 mins by HPLC-MS/MS analysis; type: ADME; details: liver microsomes, read-out: CLH
[2] = Metabolic Stability in human liver microsome assessed as half life at […] measured upto 60 mins by HPLC-MS/MS analysis; type: ADME; details: liver microsomes
[3] = Metabolic Stability in rat liver microsome assessed as half life at […] measured upto 60 mins by HPLC-MS/MS analysis; type: ADME; details: liver microsomes
[4] = Metabolic Stability in dog liver microsome assessed as half life at […] measured upto 60 mins by HPLC-MS/MS analysis; type: ADME, Canis lupus familiaris; details: liver microsomes
[5] = Metabolic Stability in cynomolgus monkey liver microsome assessed as half life at […] measured upto 60 mins by HPLC-MS/MS analysis; type: ADME, Macaca fascicularis; details: liver microsomes
[6] = Metabolic Stability in rat liver microsome assessed as microsomal intrinsic clearance at […] measured upto 60 mins by HPLC-MS/MS analysis; type: ADME; details: liver microsomes, read-out: CLH
[7] = Metabolic Stability in rat liver microsome assessed as intrinsic clearance at […] measured upto 60 mins by HPLC-MS/MS analysis; type: ADME; details: microsomes, 1 h
[8] = Metabolic Stability in dog liver microsome assessed as intrinsic clearance at […] measured upto 60 mins by HPLC-MS/MS analysis; type: ADME, Canis lupus familiaris; details: microsomes, 1 h
[9] = Metabolic Stability in human liver microsome assessed as intrinsic clearance at […] measured upto 60 mins by HPLC-MS/MS analysis; type: ADME; details: microsomes, 1 h
[10] = AUC(infinity) in CD-1 mouse at 1 mg/kg,iv administration measured after 24 hrs by LC-MS/MS analysis; type: ADME, organism-based; design: time 24 hrs, dose 1 mg/kg, route iv; details: in vivo
[11] = Half life in CD-1 mouse at 5 mg/kg,po administration measured after 24 hrs by LC-MS/MS analysis; type: ADME, organism-based; details: in vivo
[12] = Volume of distribution at steady state in rat at 1 mg/kg,iv administration measured after 24 hrs by LC-MS/MS analysis; type: ADME, organism-based; details: in vivo, read-out: Vdss
[13] = Half life in rat at 1 mg/kg,iv administration measured after 24 hrs by LC-MS/MS analysis; type: ADME, organism-based; details: in vivo
[14] = Cmax in rat at 5 mg/kg,po administration measured after 24 hrs by LC-MS/MS analysis; type: ADME, organism-based; design: time 24 hrs, dose 5 mg/kg, route po; details: in vivo
[15] = Half life in rat at 5 mg/kg,po administration measured after 24 hrs by LC-MS/MS analysis; type: ADME, organism-based; details: in vivo
[16] = Oral bioavailability in rat at 5 mg/kg administration measured after 24 hrs by LC-MS/MS analysis; type: ADME, organism-based; details: in vivo
[17] = Clearance in dog at 1 mg/kg,iv administration measured after 24 hrs by LC-MS/MS analysis; type: ADME, organism-based, Canis lupus familiaris; details: in vivo
[18] = Volume of distribution at steady state in dog at 1 mg/kg,iv administration measured after 24 hrs by LC-MS/MS analysis; type: ADME, organism-based, Canis lupus familiaris; details: in vivo, read-out: Vdss
[19] = Half life in dog at 1 mg/kg,iv administration measured after 24 hrs by LC-MS/MS analysis; type: ADME, organism-based, Canis lupus familiaris; details: in vivo
[20] = AUC(infinity) in dog at 2 mg/kg,po administration measured after 24 hrs by LC-MS/MS analysis; type: ADME, organism-based, Canis lupus familiaris; design: dose 2 mg/kg, time 24 hrs, route po; details: in vivo
[21] = Half life in dog at 2 mg/kg,po administration measured after 24 hrs by LC-MS/MS analysis; type: ADME, organism-based, Canis lupus familiaris; details: in vivo
[22] = biological target: Voltage-gated inwardly rectifying potassium channel KCNH2 (Homo sapiens, UniProt Q12809); assay: Inhibition of hERG potassium channel by patch clamp assay; type: toxicity
B16-F10 [23] = assay: Antitumor activity against mouse B16-F10 cells xenografted in C57BL/6 mouse assessed as tumor growth inhibition at 50 mg/kg,ip administrated on day 7 for 8 days relative to control; type: functional; details: B16-F10, 192 h, time 8 day, read-out: TGI
B16-F10 [24] = assay: Antitumor activity against mouse B16-F10 cells xenografted in C57BL/6 mouse assessed as tumor growth inhibition at 100 mg/kg,ip administrated on day 7 for 8 days relative to control; type: functional; details: B16-F10, 192 h, time 8 day, read-out: TGI
[25] = Antitumor activity against mouse Lung adenocarcinoma cell line xenografted in C57BL/6 mouse assessed as tumor growth inhibition at 25 mg/kg,ip administrated on day 7 for 12 days relative to control; type: functional; details: 288 h, time 12 day, read-out: TGI
[26] = Toxicity against C57BL/6 mouse xenografted with mouse Lung adenocarcinoma cell line assessed as change in body weight at 25 mg/kg,ip administrated on day 7 for 12 days; type: organism-based; details: in vivo, 288 h, time 12 day

Voltage-gated inwardly rectifying potassium channel KCNH2, sequence (Q12809 whole entry): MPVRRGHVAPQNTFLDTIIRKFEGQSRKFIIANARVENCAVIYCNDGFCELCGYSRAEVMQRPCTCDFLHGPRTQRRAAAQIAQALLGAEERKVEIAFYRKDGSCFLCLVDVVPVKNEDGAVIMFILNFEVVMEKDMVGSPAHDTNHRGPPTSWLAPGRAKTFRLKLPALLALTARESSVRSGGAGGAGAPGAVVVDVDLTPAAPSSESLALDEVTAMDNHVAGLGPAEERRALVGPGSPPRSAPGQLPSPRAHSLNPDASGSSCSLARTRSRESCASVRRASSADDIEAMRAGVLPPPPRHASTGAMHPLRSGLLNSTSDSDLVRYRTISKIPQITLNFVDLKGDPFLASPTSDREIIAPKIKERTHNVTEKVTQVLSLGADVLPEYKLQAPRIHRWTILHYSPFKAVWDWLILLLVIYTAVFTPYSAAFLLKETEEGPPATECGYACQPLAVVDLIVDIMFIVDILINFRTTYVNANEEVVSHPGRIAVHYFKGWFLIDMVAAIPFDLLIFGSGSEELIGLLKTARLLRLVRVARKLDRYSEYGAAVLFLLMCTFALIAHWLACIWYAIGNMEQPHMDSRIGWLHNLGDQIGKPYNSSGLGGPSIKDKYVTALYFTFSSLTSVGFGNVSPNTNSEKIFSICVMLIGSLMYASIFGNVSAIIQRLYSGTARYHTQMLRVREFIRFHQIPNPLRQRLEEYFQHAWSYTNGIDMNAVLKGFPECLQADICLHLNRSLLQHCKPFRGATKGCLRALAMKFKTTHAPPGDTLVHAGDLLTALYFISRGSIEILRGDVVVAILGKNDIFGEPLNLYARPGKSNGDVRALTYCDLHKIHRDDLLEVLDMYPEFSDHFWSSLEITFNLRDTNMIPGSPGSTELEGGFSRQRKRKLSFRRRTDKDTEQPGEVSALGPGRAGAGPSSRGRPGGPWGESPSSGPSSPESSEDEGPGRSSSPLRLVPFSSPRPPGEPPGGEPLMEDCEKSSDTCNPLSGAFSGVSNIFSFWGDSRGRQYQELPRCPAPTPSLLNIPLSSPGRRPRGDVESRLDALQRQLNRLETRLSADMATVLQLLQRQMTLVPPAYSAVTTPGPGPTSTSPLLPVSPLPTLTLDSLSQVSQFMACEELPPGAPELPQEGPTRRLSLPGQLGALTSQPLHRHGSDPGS

SMILES: CCS(=O)(=O)c1ccc(CC(=O)Nc2cc(Cl)c(-c3ccc(OC(C)C)c(C#N)c3)c(Cl)c2)cc1
- microsomal CLint [1]: < 9.6 µL/min/mg
- half-life [2]: > 2.42 h
- half-life [3]: > 2.42 h
- half-life [4]: > 2.42 h
- half-life [5]: 0.518 h
- microsomal CLint [6]: < 9.6 µL/min/mg
- CLH [7]: < 17.3 µL/min/mg
- CLH [8]: < 13.8 µL/min/mg
- CLH [9]: < 8.6 µL/min/mg
- AUC [10]: 4621.9 ng·h/mL
- half-life [11]: 6 h
- Vd [12]: 2.8 L/kg
- half-life [13]: 11.2 h
- Cmax [14]: 503 ng/mL
- half-life [15]: 11.4 h
- bioavailability [16]: 39.4%
- clearance [17]: 0.64 mL/min/kg
- Vd [18]: 2.5 L/kg
- half-life [19]: 46.5 h
- AUC(0-inf) [20]: 33000 ng·h/mL
- half-life [21]: 59.1 h
- IC50 [22]: > 10 µM
- inhibition in vivo at 50 mg/kg (B16-F10 [23]): 54.7%
- inhibition in vivo at 100 mg/kg (B16-F10 [24]): 77.9%
- inhibition in vivo at 25 mg/kg [25]: 46.2%
- Activity [26]: Non-Toxic
